Legend:
[1] = DPPH radical scavenging assay; details: mean ± SD (n = 3); NA: no activity
Method: S1.4. DPPH radical scavenging assay
The DPPH radical scavenging assay was used to evaluate the antioxidant activity of compounds 1-11. In a 96-well microplate, 100 µL of DPPH solution (200 µM in ethanol) was added to 100 µL sample in ethanol at graded concentrations ranging from 7 to 500 µM. The mixture was incubated in the dark at room temperature for 30 min. The absorbance of the reaction mixture was measured at 517 nm using a microplate reader. The DPPH scavenging activity was calculated by the following formula: DPPH scavenging activity (%) = (Acontrol- Asample)/Acontrol×100%, where Acontrol was the absorbance of ethanol control without samples, Asample was the absorbance of sample. Ascorbic acid was used as the positive control in the […]

[2] = ABTS radical scavenging assay; details: mean ± SD (n = 3)
Method: (§1) S1.4. DPPH radical scavenging assay […]
S1.5. ABTS radical scavenging assay
The ABTS radical scavenging assay was used also to evaluate the antioxidant activity of compounds 1-11. The ABTS free radical cation (ABTS•+ )was manufactured by reacting ABTS stock solution (7 mM) with potassium persulphate

α-amylase = α-amylase inhibitory activity; assay type: biochemical; details: for α-Amylase Inhibition at 0.1 mM: mean ± SD (n = 3), NA: no activity; for α-amylase inhibitory effects (in words): weaker than the positive control acarbose
Method: S1.3. Determination of α-amylase inhibitory activity
Phosphate buffer (20 mM, pH 6.9, containing 6 mM NaCl) was used as the […]
µL, 1%, w/v) were mixed and incubated in a 96-well microplate at37 °C for 10 min.
Then, α-amylase solution (50 µL, 0.2 U/mL) was added and the mixture was incubated at 37 °C for an additional 10 min. The reaction was stopped by addition of […]
microplate was immediately heated in 95 °C water bath for 10 min. When the reaction solution cooled to room temperature, allsamples were diluted by adding distilled water (50 µL), and then their absorbance was measured using a microplate reader at […]
starch solution) at 540 nm, thus the inhibitory activity was calculated as (Acontrol-Asample)/Acontrol×100%, in which Asample was the absorbance of the sample and Acontrol was the absorbance of the phosphate buffer control without test samples. Acarbose was used as the positive control.
as §1

α-Glucosidase from yeast = assay: α-glucosidase inhibitory activity; assay type: biochemical; details: for α-Glucosidase Inhibition at 0.1 mM: mean ± SD (n = 3), NA: no activity; for α-glucosidase inhibitory effects (in words): weaker than the positive control acarbose
Method: S1. Determination of bioactivities […]
S1.2. Determination of α-glucosidase inhibitory activity […]
diluted with phosphate buffer (0.1 M, pH 6.8). […]
and 4-nitrophenyl α-D-glucopyranoside (pNPG) solution (50 µL, 5 mM) were mixed and incubated in a 96-well microplate at 37 °C for 5 min. α-Glucosidase from yeast (50 µL, 0.2 U/mL) was added and incubated at 37 °C for another 30 min. Finally, 50 µL of Na2CO3 (1M) was added to terminate the reaction. The absorbance of mixture was measured using a microplate reader at a wavelength 405 nm. […]
following equation: α-glucosidase inhibition (%) = (Acontrol- Asample)/Acontrol×100%, where Acontrolrepresented the absorbance of phosphate buffer control without test samples, Asample represented the absorbance of test samples. Acarbose was used as the […]

FAS = target: T1, FAS (Gallus gallus, UniProt P12276); assay: FAS inhibitory activity; assay type: biochemical, chicken; details: mean ± SD (n = 3); NA: no activity
T1 construct: isolated from chicken liver; from tissue; host or cells: chicken liver
T1 sequence (P12276 2-2512 limits assumed): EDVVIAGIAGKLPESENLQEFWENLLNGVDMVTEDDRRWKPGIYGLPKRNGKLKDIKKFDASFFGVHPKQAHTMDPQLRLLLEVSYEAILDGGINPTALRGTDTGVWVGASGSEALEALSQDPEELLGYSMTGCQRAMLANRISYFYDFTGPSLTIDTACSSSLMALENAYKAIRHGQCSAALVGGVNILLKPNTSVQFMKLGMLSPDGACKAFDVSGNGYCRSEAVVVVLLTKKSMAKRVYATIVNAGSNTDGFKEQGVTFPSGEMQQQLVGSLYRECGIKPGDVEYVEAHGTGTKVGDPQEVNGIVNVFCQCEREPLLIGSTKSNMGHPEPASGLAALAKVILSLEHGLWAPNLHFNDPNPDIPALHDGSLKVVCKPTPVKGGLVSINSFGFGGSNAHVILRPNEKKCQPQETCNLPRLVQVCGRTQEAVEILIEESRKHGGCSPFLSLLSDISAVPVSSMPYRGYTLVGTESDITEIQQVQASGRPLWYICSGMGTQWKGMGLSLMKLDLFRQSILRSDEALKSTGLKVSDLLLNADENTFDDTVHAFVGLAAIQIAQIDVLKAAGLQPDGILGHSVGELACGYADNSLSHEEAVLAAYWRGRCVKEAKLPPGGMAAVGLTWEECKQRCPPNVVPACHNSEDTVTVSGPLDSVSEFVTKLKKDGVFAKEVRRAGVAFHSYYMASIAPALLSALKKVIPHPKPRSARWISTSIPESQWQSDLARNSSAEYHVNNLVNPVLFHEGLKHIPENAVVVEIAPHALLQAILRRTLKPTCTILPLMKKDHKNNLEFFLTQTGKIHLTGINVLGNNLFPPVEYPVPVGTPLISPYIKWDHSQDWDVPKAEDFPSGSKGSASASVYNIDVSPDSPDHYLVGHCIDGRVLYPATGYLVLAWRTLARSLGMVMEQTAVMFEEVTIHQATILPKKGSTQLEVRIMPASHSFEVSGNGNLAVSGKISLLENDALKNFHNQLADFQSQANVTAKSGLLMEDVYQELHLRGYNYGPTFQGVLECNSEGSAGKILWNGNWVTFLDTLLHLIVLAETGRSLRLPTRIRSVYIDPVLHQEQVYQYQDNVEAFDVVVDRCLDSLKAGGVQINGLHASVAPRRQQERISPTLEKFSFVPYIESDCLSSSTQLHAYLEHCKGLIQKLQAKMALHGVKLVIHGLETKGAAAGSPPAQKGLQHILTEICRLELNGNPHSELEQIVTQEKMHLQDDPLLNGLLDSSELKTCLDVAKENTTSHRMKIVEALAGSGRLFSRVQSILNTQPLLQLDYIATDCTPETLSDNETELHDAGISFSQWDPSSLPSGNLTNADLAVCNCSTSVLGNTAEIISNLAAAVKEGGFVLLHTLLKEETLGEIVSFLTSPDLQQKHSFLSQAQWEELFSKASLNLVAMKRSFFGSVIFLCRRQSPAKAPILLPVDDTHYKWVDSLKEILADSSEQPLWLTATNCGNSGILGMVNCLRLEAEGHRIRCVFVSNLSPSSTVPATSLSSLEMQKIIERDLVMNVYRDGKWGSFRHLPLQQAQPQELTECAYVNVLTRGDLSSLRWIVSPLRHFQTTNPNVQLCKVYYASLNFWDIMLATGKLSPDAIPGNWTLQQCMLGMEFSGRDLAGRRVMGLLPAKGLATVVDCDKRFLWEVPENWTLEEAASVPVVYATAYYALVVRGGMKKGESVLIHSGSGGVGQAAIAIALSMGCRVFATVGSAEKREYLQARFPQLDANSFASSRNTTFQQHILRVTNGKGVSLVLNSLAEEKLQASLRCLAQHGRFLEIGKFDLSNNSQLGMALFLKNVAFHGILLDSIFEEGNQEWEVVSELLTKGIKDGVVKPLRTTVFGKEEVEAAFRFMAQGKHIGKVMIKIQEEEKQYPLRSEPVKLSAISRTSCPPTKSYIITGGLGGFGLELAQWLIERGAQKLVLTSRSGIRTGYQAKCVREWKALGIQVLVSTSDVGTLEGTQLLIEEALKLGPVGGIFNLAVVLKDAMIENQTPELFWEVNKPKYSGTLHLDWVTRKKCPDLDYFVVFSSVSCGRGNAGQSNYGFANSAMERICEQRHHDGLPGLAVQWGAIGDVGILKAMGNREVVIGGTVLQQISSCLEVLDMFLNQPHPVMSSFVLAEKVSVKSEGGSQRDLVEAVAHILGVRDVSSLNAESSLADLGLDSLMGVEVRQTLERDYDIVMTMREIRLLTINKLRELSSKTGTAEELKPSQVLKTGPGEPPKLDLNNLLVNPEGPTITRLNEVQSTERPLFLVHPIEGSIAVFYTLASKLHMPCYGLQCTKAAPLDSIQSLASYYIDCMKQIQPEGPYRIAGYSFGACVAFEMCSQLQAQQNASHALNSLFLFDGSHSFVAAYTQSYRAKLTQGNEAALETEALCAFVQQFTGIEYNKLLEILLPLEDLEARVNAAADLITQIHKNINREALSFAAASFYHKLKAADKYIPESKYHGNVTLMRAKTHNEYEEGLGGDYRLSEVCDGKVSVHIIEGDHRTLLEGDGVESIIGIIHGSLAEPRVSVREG
Method: S1. Determination of bioactivities
S1.1. Determination of FAS inhibitory activity […]
diluted with potassium phosphate buffer (0.1 M, pH 7.0). Sample solution (100 µL, 20-2000 μM, 37 °C) and FAS substrates (1.8 mL, 37 °C) were mixed in a cuvette, and then FAS solution (100 µL, 37 °C, isolated from chicken liver and kept in ice-bath before use) was added. The absorbance of reaction mixture was monitored by a UV-vis spectrophotometer at340 nm in 1 min. The inhibitory effect was calculated by the following equation: FAS inhibition (%) = (Acontrol-Asample)/Acontrol× 100%, where Acontrolrepresented the FAS activity in the control group (phosphate buffer instead of sample solution), Asamplerepresented the FAS activity in the sample groups. The FAS activity was calculated as (A0 -A1)/1 min, in which A0 was the absorbance of the reaction mixture when the FAS was added, and A1 was the absorbance of the reaction mixture after reaction 1 min. Orlistat was used as the positive control.
FAS substrates: 0.1 M potassium phosphate buffer (pH 7.0), 1 mM ethylene-diaminetetraacetic acid (EDTA), 1 mM dithiothreitol, 3 µM acetyl-coenzyme A, 10 µM […], 35 µM NADPH. […]

Compound	α-Glucosidase Inhibition at 0.1 mM (α-Glucosidase from yeast)	α-glucosidase inhibitory effects (in words) (α-Glucosidase from yeast)	IC50 [1] [µM]	IC50 [2] [µM]	α-Amylase Inhibition at 0.1 mM (α-amylase)	IC50 (FAS) [µM]	α-amylase inhibitory effects (in words) (α-amylase)
CC1OC(OC2C(C)OC(OC3C(O)C(OCC(O)c4ccc(O)c(O)c4)OC(CO)C3OC(=O)C=Cc3ccc(O)cc3)C(O)C2O)C(O)C(O)C1O (stereo not drawn) [Compound 2]			43.2 ± 1.06	10.6 ± 0.48	10.6 ± 2.3 f %		
C[C@@H]1O[C@@H](O[C@@H]2[C@@H](O)[C@@H](O)[C@H](O[C@@H]3[C@@H](O)[C@H](OCC(=O)c4ccc(O)c(O)c4)O[C@H](CO)[C@H]3OC(=O)/C=C/c3ccc(O)cc3)O[C@H]2C)[C@H](O)[C@H](O)[C@H]1O [Compound 3, 2-(3,4-dihydroxyphenyl)-2-oxoethyl 3-O-[α-L-rhamnopyranosyl-(1→4)-α-L-rhamnopyranosyl]-4-O-(trans-p-coumaroyl)-O-β-D-glucopyranoside]	42.3 ± 8.7 bc %	moderate	23.8 ± 0.89	4.13 ± 0.06			
CC1OC(OC2C(O)C(OCc3ccccc3)OC(CO)C2OC(=O)C=Cc2ccc(O)cc2)C(O)C(O)C1O (stereo not drawn) [Compound 4]						6.49 ± 0.27	
C[C@@H]1O[C@@H](O[C@@H]2[C@@H](O)[C@@H](O)[C@H](O[C@@H]3[C@@H](O)[C@H](OCCc4ccc(O)cc4)O[C@H](CO)[C@H]3OC(=O)/C=C/c3ccc(O)cc3)O[C@H]2C)[C@H](O)[C@H](O)[C@H]1O [Compound 7, ligupurpuroside B]			> 250	2.75 ± 0.09	19.9 ± 1.8 d %		
CC1OC(OC2C(C)OC(OC3C(O)C(OCCc4ccc(O)cc4)OC(CO)C3OC(=O)C=Cc3ccc(O)cc3)C(O)C2O)C(O)C(O)C1O (stereo not drawn) [Compound 8, cis-ligupurpuroside B]			> 250	4.17 ± 0.06			
C[C@@H]1O[C@@H](O[C@@H]2[C@@H](O)[C@@H](O)[C@H](O[C@@H]3[C@@H](O)[C@H](OCCc4ccc(O)cc4)O[C@H](CO)[C@H]3OC(=O)/C=C/c3ccc(O)c(O)c3)O[C@H]2C)[C@H](O)[C@H](O)[C@H]1O [Compound 9, ligurobustoside N]	25.4 ± 4.1 d %		29.2 ± 0.37	2.68 ± 0.05	15.9 ± 3.1 e %	5.61 ± 0.44	
CC1OC(OC2C(O)C(OCCc3ccc(O)cc3)OC(CO)C2OC(=O)C=Cc2ccc(O)cc2)C(O)C(O)C1O (stereo not drawn) [Compound 10, osmanthuside D]	19.3 ± 5.6 e %		> 250	3.34 ± 0.02	26.1 ± 1.9 c %		moderate
CC1OC(OC2C(O)C(COC(=O)C=Cc3ccc(O)cc3)OC(OCCc3ccc(O)cc3)C2O)C(O)C(O)C1O (stereo not drawn) [Compound 11, (Z)-osmanthuside B6]			> 250	3.83 ± 0.05	23.5 ± 1.7 c %	4.55 ± 0.35	moderate
O=C1O[C@H]([C@@H](O)CO)C(O)=C1O [L-(+)-ascorbic acid, reference compound]			13.66 ± 0.13	10.1 ± 0.19			

Continued, in another order:

α-Glucosidase Inhibition at 0.1 mM (α-Glucosidase from yeast)	α-glucosidase inhibitory effects (in words) (α-Glucosidase from yeast)	Compound	IC50 [1] [µM]	IC50 [2] [µM]	α-Amylase Inhibition at 0.1 mM (α-amylase)	IC50 (FAS) [µM]	α-amylase inhibitory effects (in words) (α-amylase)
45.1 ± 2.5 b %	moderate	C[C@@H]1O[C@@H](O[C@@H]2[C@@H](O)[C@H](OCc3ccccc3)O[C@H](COC(=O)/C=C/c3ccc(O)cc3)[C@H]2O)[C@H](O)[C@H](O)[C@H]1O [Compound 5, benzyl 3-O-(α-L-rhamnopyranosyl)-6-O-(trans-p-coumaroyl)-O-β-D-glucopyranoside]	> 250	4.86 ± 0.06			
36.5 ± 1.5 c %		C[C@@H]1O[C@@H](O[C@@H]2[C@@H](O)[C@H](OCc3ccccc3)O[C@H](COC(=O)/C=C\c3ccc(O)cc3)[C@H]2O)[C@H](O)[C@H](O)[C@H]1O [Compound 6, benzyl 3-O-(α-L-rhamnopyranosyl)-6-O-(cis-p-coumaroyl)-O-β-D-glucopyranoside]		20.7 ± 0.22			
